Experimental data reported in publication PMC8996404, “The pharmacokinetics of buserelin after intramuscular administration in pigs and cows” (BMC Veterinary Research, 2022).
Read-outs that look alike come from different tables or passages of the source. Marks after values point to notes of the source that are not given here.

Experiments:
[1] = Stability of buserelin in cow plasma (autosampler, benchtop, freeze–thaw); type: in vitro ADME; settings: UPLC-MS/MS
Protocol: (§1) Selectivity has been assessed by comparing the chromatograms of blank plasma samples and those of corresponding items with buserelin to exclude the interfering peaks. The calibration curve was established by spiking the blank matrix with known concentration of buserelin. Limit of detection (LOD) and Limit of quantification (LOQ) were determined as the concentrations of buserelin which produced signal/ noise ratio of 3 and 10, respectively. For linearity of this method, calibration curves were generated by least squares regression method with a weighting factor and regression coefficient. Recovery was determined by comparing the analytical results of the extracted quality control (QC) samples with pure standard solution. The accuracy was assessed as the percentage of the measured concentration to the nominal standard concentration. The precision was expressed by coefficient of variation. Stability was assessed by autosampler, benchtop, freeze–thaw, and stock solution test. The matrix effect was obtained with the area of post-extraction blank plasma samples added with buserelin at two levels with the equivalent concentration standard solutions that added with initiate mobile phase.

[2] = Stability of buserelin in pig plasma (autosampler, benchtop, freeze–thaw); type: in vitro ADME; settings: for Stability, Accuracy Mean ± SD: pig plasma, UPLC-MS/MS
Protocol: as §1

[3] = cited from earlier work
Protocol: After being approved by the European Medicines Agency (EMA) in 1995 [1], there are some pharmacokinetic studies of buserelin been reported in humans and rats following subcutaneous (s.c.), intranasal (i.n.), or intravenous (i.v.) routes. […] Regardless of the administration route of buserelin, the elimination of half- ... || The Vd was 80.49 ± 43.88 L for pigs and 839.88 ± 174.77 L for cows, which is larger than pigs (304 ± 112 mL/kg) at a single dose 1 mg i.v., and dogs (50.1 ± 2.4 mL/kg) at a single dose 5 mg i.v.. High plasma concentration, high bonding rate, means more drugs cannot across the membrane and barrier. Therefore, binding changes can affect the distribution of drugs. Because protein binding of buserelin is about 15% [2], it is proportional to the body volume and body weight and animals using in this study had larger volume of body water or extracellular water. It has been repo ...

[4] = cited from earlier work; remark: listed apart in the source
Text: After being approved by the European Medicines Agency (EMA) in 1995 [1], there are some pharmacokinetic studies of buserelin been reported in humans and rats following subcutaneous (s.c.), intranasal (i.n.), or intravenous (i.v.) routes. […] High plasma concentration, high bonding rate, means more drugs cannot across the membrane and barrier. Therefore, binding changes can affect the distribution of drugs. Because protein binding of buserelin is about 15% [2], it is proportional to the body volume and body weight and animals using in this study had larger volume of body water or extracellular water. It has been repo ...

[5] = Stock solution stability test of buserelin; type: physicochemical; settings: stock solution in methanol, concentration 100 ng/mL, UPLC-MS/MS
Protocol: A standard stock solution (1 mg/mL) was prepared by dissolving 2 mg standard buserelin in 2 mL methanol. This solution was stored in brown glass bottles at -20 ℃. Working solutions were prepared by diluting the stock solution with methanol.
as §1, with “The matrix effect was obtained with the area of post-extraction blank plasma samples added with buserelin at two levels with the equivalent concentration standard solutions that added with initiate mobile phase.” left out

Compound: CCNC(=O)[C@@H]1CCCN1C(=O)[C@H](CCCNC(=N)N)NC(=O)[C@H](CC(C)C)NC(=O)[C@@H](COC(C)(C)C)NC(=O)[C@H](Cc1ccc(O)cc1)NC(=O)[C@H](CO)NC(=O)[C@H](Cc1c[nH]c2ccccc12)NC(=O)[C@H](Cc1cnc[nH]1)NC(=O)[C@@H]1CCC(=O)N1 [buserelin, Buserelin]
- Stability, Accuracy Mean ± SD ([1]; autosampler, concentration 0.25 ng/mL): 0.24 ± 0.01
- Stability, Accuracy Mean ± SD ([1]; autosampler, concentration 4 ng/mL): 3.90 ± 0.30
- Stability, Accuracy Mean ± SD ([1]; benchtop, concentration 0.25 ng/mL): 0.25 ± 0.02
- Stability, Accuracy Mean ± SD ([1]; benchtop, concentration 4 ng/mL): 3.87 ± 0.41
- Stability, Accuracy Mean ± SD ([1]; freeze–thaw, concentration 0.25 ng/mL): 0.26 ± 0.02
- Stability, Accuracy Mean ± SD ([1]; freeze–thaw, concentration 4 ng/mL): 3.95 ± 0.34
- Stability, Accuracy Mean ± SD ([2]; autosampler, concentration 0.5 ng/mL): 0.51 ± 0.04
- Stability, Accuracy Mean ± SD ([2]; autosampler, concentration 20 ng/mL): 19.70 ± 2.32
- Stability, Accuracy Mean ± SD ([2]; benchtop, concentration 0.5 ng/mL): 0.47 ± 0.02
- Stability, Accuracy Mean ± SD ([2]; benchtop, concentration 20 ng/mL): 19.72 ± 1.61
- Stability, Accuracy Mean ± SD ([2]; freeze–thaw, concentration 0.5 ng/mL): 0.51 ± 0.04
- Stability, Accuracy Mean ± SD ([2]; freeze–thaw, concentration 20 ng/mL): 19.95 ± 1.12
- Stability during autosampler, benchtop, freeze–thaw, and stock solution test ([2]; summary statement for pig plasma, cow plasma and stock solution (Table 3)): stable
- Protein binding [3]: about 15%
- rapid initial half time / t1/2 ([3]; guinea pigs, i.v. ref 1): 12 min
- tmax ([4]; health volunteers, single dose 5 µg s.c. ref 3): 42 min
- tmax ([4]; health volunteers, single dose 150 µg i.n. ref 3): 58 min
- tmax ([4]; health volunteers, single dose 300 µg i.n. ref 3): 43.8 min
- tmax ([4]; health volunteers, single dose 450 µg i.n. ref 3): 38.8 min
- tmax ([4]; health volunteers, single dose 500 µg i.v. ref 3): 20 min
- elimination half-time ([4]; human, regardless of the administration route ref 2, 3): 72 to 120 min
- tmax ([4]; rats (anesthetized), single dose of 0.1 mg/kg i.n. ref 18): 115 ± 25.2 min
- rapid initial half time / t1/2 ([4]; rats, i.v. ref 1): 5 min
- t1/2 ([4]; rats, single dose of 6 mg/kg s.c. injection ref 13): 42 min
- Stock solution stability, Mean ± SD ([5]; column Cow): 2.51 ± 0.05 Peak area (10^5)
- Stock solution stability, Mean ± SD ([5]; column Pig): 2.50 ± 0.05 Peak area (10^5)
